Twelve molecules from the SangsterLogP compilation can be followed below.

Structures are written as SMILES.

A short description of data set [1]: method code SF-AS, from DOI: 10.1111/j.2042-7158.1992.tb14369.x, PMID: 1350635. The note with it: pH 13.0.
Data set [2] can be described thus: method code SF, from DOI: 10.1111/j.2042-7158.1992.tb14369.x, PMID: 1350635. The note with it: pH 13.0.

In turn, `C#CCOc1ccccc1OCC(O)CNC(C)(C)C` (configuration not stated) yielded a pH-dependent lipophilicity (logD) in data set [1] of 2.32.

Turning to `COc1ccccc1OCC(O)CNC(C)C` (configuration not stated), in data set [1], the pH-dependent lipophilicity (logD) turned out to be 1.69.

`CC(C)(C)NCC(O)COc1ccccc1C#N` (configuration not stated) registered a pH-dependent lipophilicity (logD) in data set [2] of 1.97.

In turn, `CC(=O)Nc1ccc(OCC(O)CNC(C)C)c(C(C)=O)c1` (configuration not stated) yielded a log distribution coefficient (logD) in data set [1] of 0.94.

Consider `CC(=O)c1cc2cccc(OCC(O)CNC(C)C)c2o1` (configuration not stated), for which the pH-dependent lipophilicity (logD) in data set [1] turned out to be 2.02.

As to `CC(C)NCC(O)COc1ccc(CCOCC2CC2)cc1` (configuration not stated), the log distribution coefficient (logD) in data set [1] was found to be 2.81.

On to `CC(C)NC[C@H](O)COc1ccc(OCCOCCc2ccc(F)cc2)cc1`, for which the log distribution coefficient (logD) in data set [1] was determined as 3.7.

For `CC(C)NCC(O)COc1ccc(COCCOC(C)C)cc1` (configuration not stated), in data set [1], the logD was 1.87.

In data set [1], `CC(C)NCC(O)COc1ccccc1C1CC2CCC1C2` (configuration not stated) displayed a log distribution coefficient (logD) of 4.17.

For `CC(C)NCC(O)COc1ccccc1C1CC1` (configuration not stated), the logD in data set [1] turned out to be 3.07.

In turn, `CNC(=O)COc1ccccc1OCC(O)CNC(C)(C)C` (configuration not stated) gave a logD in data set [1] of 1.36.

`Cc1cc2c(OCC(O)CNC(C)C)cccc2[nH]1` (configuration not stated) had a pH-dependent lipophilicity (logD) in data set [1] of 2.3.

As usually defined, the logD is lipophilicity at a set pH, counting ionised and neutral species. Read a low logD as lower lipophilicity.
